Test system: concanavalin A (ConA)-induced mouse hepatitis models (T cell-dependent liver injury models)
Assay: concanavalin A (ConA)-induced mouse hepatitis model, AST and ALT in serum
Description: Aspartate aminotransferase (AST) and alanine aminotransferase (ALT) in serum were measured as indices for liver injury in concanavalin A (ConA)-induced mouse hepatitis models used as T cell-dependent liver injury models. The inhibitory effects of compounds of the present invention on liver injury were studied.
A compound suspension was orally administered at a dose of 1 mg/kg to male BALE/c mice. 24 hours after the oral administration, ConA was intravenously administered at a dose of 20 mg/kg to the tails of the mice. 24 hours after the ConA administration, blood was collected from the mice, and AST and ALT in serum were measured.

Compound: COc1ccc(CCCC(=O)c2ccc(CC[C@@](C)(N)CO)n2C)cc1C [Compound 1]
- inhibitory effects on ALT level elevating effects (result in words, 1 mg/kg oral, ConA-induced mouse hepatitis): significant inhibitory effects
- AST level (mean ± S.E., IU/L) (serum, compound 1 mg/kg oral 24 hours before ConA 20 mg/kg intravenous, blood collected 24 hours after ConA, **P < 0.01, *P < 0.05 vs. solvent (solvent 236.9 ± 52.6, negative control 105.2 ± 26.1)): 97.4 ± 9.1** IU/L
- ALT level (mean ± S.E., IU/L) (serum, compound 1 mg/kg oral 24 hours before ConA 20 mg/kg intravenous, blood collected 24 hours after ConA, **P <0.01, *P <0.05 vs. solvent (solvent 454.1 ± 137.8, negative control 76.4 ± 14.2)): 101.6 ± 19.6** IU/L

— patent US20100081702A1 (priority 2007, published 2010)
